Laboratory results reported in publication PMC6584507 (Scientific Reports, 2019).
In brackets after ≈: the same amount, converted by molar mass.

Assays:
hTSLP/hTSLPR interaction = molecular target: T1, hTSLP/hTSLPR interaction (Homo sapiens, UniProt Q969D9); assay: ELISA of hTSLP/hTSLPR interaction (FLAG-hTSLP, hTSLPR-His); type: binding; details: for inhibition at 300 µM / inhibition at 1000 µM: read-out: % inhibition (hTSLP-inhibitory activity by ELISA);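 as to all read-outs here: His-tagged hTSLPR captured on Ni-NTA plates, compounds plus FLAG-hTSLP incubated 18 h at 4 °C, bound ligand detected with HRP anti-FLAG, OD 450 nm relative to control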
T1 construct: human TSLP28–159 with thrombin cleavage site at C-terminus; thrombin cleavage site (C); 8xHis (from vector pAB-bee-8xHis) (C, cleaved yes); made in house; host or cells: Trichoplusia ni High-Five cells, baculovirus (secreted)
T1 sequence (Q969D9 28-159): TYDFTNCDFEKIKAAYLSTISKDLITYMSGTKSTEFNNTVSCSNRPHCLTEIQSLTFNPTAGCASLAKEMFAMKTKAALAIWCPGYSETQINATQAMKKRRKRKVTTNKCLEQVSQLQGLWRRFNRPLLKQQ

[1] = Kinetic aqueous solubility; type: physicochemical; details: 0.1 M potassium phosphate buffer, kinetic from dmso stock, PBS / phosphate buffer pH 7.4
Description: In brief, 10 mM stock solution of tested compounds was prepared in DMSO. 25 μL of the stock solution was added to a 1-mL uniprep vial containing 475 μL of 0.1 M potassium phosphate buffer (pH 7.4), and was shaken at 800 rpm for 90 min at room temperature. Following shaking, the mixture was filtered by slowly pressing the upper tube of the 1 mL Mini-Uniprep^TM filter (PTFE membrane, 0.45 μm). 250 μL of the filtrate solution was then transferred to a HPLC vial containing equal volume of acetonitrile.

[2] = test system: STAT5 phosphorylation in hTSLP-stimulated HMC-1 cells; assay: STAT5 assay (STAT5 phosphorylation, flow cytometry); type: cell-based, human
Description: (§1) HMC-1 cells were obtained from the Department of Food Technology and Inflammatory Disease Research Center (Hoseo University, Asan, Chungnam, Korea). Cells were cultured in Iscove’s modified Dulbecco’s medium (IMDM; Hyclone Laboratories Inc, USA) supplemented with 10% FBS and 1% Penicillin-streptomycin (PS; Gibco Industries Inc, USA) and incubated at 37 °C under humidified atmosphere of 95% air and 5% CO2. Recombinant hTSLP was purchased from R&D Systems (Minneapolis, USA).
Intracellular phospho-STAT5 (pSTAT5) staining method was based on the protocol obtained from the laboratory of Susan Kaech, Department of Immunobiology, Yale University School of Medicine (New Haven, Connecticut, USA). Briefly, HMC-1 cells were seeded in 96-well U-bottom plate at a density of 1 × 10^7 cells/mL and stimulated with 100 ng/mL recombinant hTSLP alone or with 1 for 30 min. After stimulation, cells were fixed with BD Cytofix/Cytoperm (BD Biosciences, USA) solution for 10 min. Fixed cells were then permeabilized with ice-cold methanol for 30 min, and intracellular pSTAT5 was stained with Alexa Fluor 647 mouse anti-STAT5 (pY694; BD Biosciences, USA) (1:10 dilution in FACS buffer) for 30 min. Stained cells were further fixed with BD Cytofix/Cytoperm solution for 10 min and re-suspended in FACS buffer for flow cytometry analysis. Cells were analyzed by a BD LSR Fortessa Flow cytometry (BD Biosciences, USA). FACS data were analyzed using FlowJo software Ver 9. 7. 6 (Tree Star Inc., USA).

[3] = test system: pSTAT5 in TSLP-stimulated HMC-1 cells; assay: Western blot analysis of STAT5 phosphorylation; type: cell-based, human; details: TSLP 20 ng/mL for 2 h
Description: as §1
[…] Activated cells were lysed and separated by 10% sodium dodecyl sulfate-polyacrylamide gel electrophoresis (SDS-PAGE). After electrophoresis, proteins were transferred to nitrocellulose membranes. The membranes were blocked, incubated with primary antibodies (1:700 dilution in PBS with 0.05% Tween-20), and developed using peroxidase-conjugated secondary antibodies (1:3000 dilution in PBS with 0.05% Tween-20). Proteins were visualized by enhanced chemiluminescence (Amersham Bioseciences, Piscataway, NJ, USA) according to the manufacturer’s instructions.

SMILES: COc1c(O)cc2oc(-c3ccccc3)cc(=O)c2c1O [KUP-119, oroxylin A]
- % inhibition (hTSLP-inhibitory activity by ELISA) (hTSLP/hTSLPR interaction; 0.3 mM): 1.7 ± 9.0%
- % inhibition (hTSLP-inhibitory activity by ELISA) (hTSLP/hTSLPR interaction; 1 mM): 11.6 ± 6.3%

SMILES: COc1c(O)cc(O)c2c(=O)cc(-c3ccccc3)oc12 [Compound 1b, wogonin]
- inhibition at 300 µM (hTSLP/hTSLPR interaction; 0.3 mM): < 5%
- inhibition at 1000 µM (hTSLP/hTSLPR interaction; 1 mM): < 5%

SMILES: O=C1CC(c2ccc(O)cc2)Oc2cc(O)cc(O)c21 (centres unmarked) [Compound 7b, 5,7-Dihydroxy-2-(4-hydroxyphenyl)chroman-4-one]
- solubility kinetic at 90 min [1]: 505 µM (≈ 137 µg/mL)
- hTSLP-inhibitory activity by ELISA, comparison in words (hTSLP/hTSLPR interaction): weaker

SMILES: O=C(O)[C@H]1O[C@@H](Oc2cc3oc(-c4ccccc4)cc(=O)c3c(O)c2O)[C@H](O)[C@@H](O)[C@@H]1O [KUP-040, baicalin]
- STAT5 phosphorylation % ([2]; 3 µM): 69.7%
- STAT5 phosphorylation % ([2]; 10 μM): 68.8%

SMILES: COc1cc2oc(-c3ccccc3)cc(=O)c2c(OC)c1OC [Compound 2]
- inhibition at 300 µM (hTSLP/hTSLPR interaction; 0.3 mM): < 5%
- inhibition at 1000 µM (hTSLP/hTSLPR interaction; 1 mM): 12 ± 2.8%

SMILES: COc1cccc(O)c1-c1cc(=O)c2c(O)c(OC)c(OC)c(OC)c2o1 [Compound 1d, skullcapflavone II]
- inhibition at 300 µM (hTSLP/hTSLPR interaction; 0.3 mM): < 5%
- inhibition at 1000 µM (hTSLP/hTSLPR interaction; 1 mM): < 5%

SMILES: O=c1cc(-c2ccccc2)oc2cc(O)cc(O)c12 [Compound 6a, 5,7-Dihydroxy-2-phenyl-4H-chromen-4-one]
- solubility kinetic at 90 min [1]: 30 µM (≈ 7.63 µg/mL)

SMILES: O=c1cc(-c2ccccc2)oc2ccc(O)cc12 [Compound 3b]
- inhibition at 300 µM (hTSLP/hTSLPR interaction; 0.3 mM): 22.2 ± 2.5%
- inhibition at 1000 µM (hTSLP/hTSLPR interaction; 1 mM): 38.7 ± 5.3%

SMILES: O=c1cc(-c2cccc(-c3ccc(O)cc3)c2)oc2cc(O)c(O)cc12 [Compound 10g, 6,7-Dihydroxy-2-(4′-hydroxy-[1,1′-biphenyl]-3-yl)-4H-chromen-4-one]
- inhibition of STAT5 phosphorylation, Western blot (in words) ([3]; HMC-1 cells pretreated): stronger than compound 1
- IC50 (hTSLP/hTSLPR interaction): 210 µM
- inhibition at 300 µM (hTSLP/hTSLPR interaction; 0.3 mM): > 50%

SMILES: O=C1CC(c2cccc(-c3ccc(O)cc3)c2)Oc2cc(O)cc(O)c21 (centres unmarked) [Compound 11a, 5,7-Dihydroxy-2-(4′-hydroxy-[1,1′-biphenyl]-3-yl)chroman-4-one]
- inhibition of STAT5 phosphorylation, Western blot (in words) ([3]; even at 0.01 μM, HMC-1 cells): strongly inhibited
- solubility kinetic at 90 min [1]: 66 µM (≈ 23 µg/mL)
- IC50 (hTSLP/hTSLPR interaction): 370 µM

SMILES: O=c1cc(-c2cccc(-c3ccc(O)cc3)c2)oc2cc(O)cc(O)c12 [Compound 10a, 5,7-Dihydroxy-2-(4′-hydroxy-[1,1′-biphenyl]-3-yl)-4H-chromen-4-one]
- inhibition at 300 µM (hTSLP/hTSLPR interaction; 0.3 mM): > 50%

SMILES: O=C(O)[C@H]1O[C@@H](Oc2cc3oc(-c4ccccc4)cc(=O)c3c(O)c2O)[C@H](O)[C@@H](O)[C@@H]1O [Compound 1a, baicalin]
- inhibition at 300 µM (hTSLP/hTSLPR interaction; 0.3 mM): 12.1 ± 1.8%
- inhibition at 1000 µM (hTSLP/hTSLPR interaction; 1 mM): 19.9 ± 0.2%

SMILES: O=c1cc(-c2cccc(-c3ccccc3)c2)oc2cc(O)c(O)cc12 [Compound 10e, 2-([1,1′-Biphenyl]-3-yl)-6,7-dihydroxy-4H-chromen-4-one]
- inhibition of STAT5 phosphorylation, Western blot (in words) ([3]; HMC-1 cells pretreated): stronger than compound 1
- IC50 (hTSLP/hTSLPR interaction): 177 µM
- inhibition at 300 µM (hTSLP/hTSLPR interaction; 0.3 mM): > 50%

SMILES: O=c1cc(-c2ccccc2)oc2cc(O)ccc12 [Compound 3a]
- inhibition at 300 µM (hTSLP/hTSLPR interaction; 0.3 mM): 16.4 ± 2.7%
- inhibition at 1000 µM (hTSLP/hTSLPR interaction; 1 mM): 23.3 ± 6.8%

SMILES: COc1c(O)cc2oc(-c3ccccc3)cc(=O)c2c1O [Compound 1c, oroxylin A]
- % inhibition (hTSLP-inhibitory activity by ELISA) (hTSLP/hTSLPR interaction; 0.3 mM): <5%
- inhibition at 1000 µM (hTSLP/hTSLPR interaction; 1 mM): 11.6 ± 6.3%

SMILES: O=C1CC(c2ccccc2)Oc2cc(O)cc(O)c21 (centres unmarked) [Compound 7a, 5,7-Dihydroxy-2-phenylchroman-4-one]
- solubility kinetic at 90 min [1]: 111 µM (≈ 28.4 µg/mL)
- hTSLP-inhibitory activity by ELISA, comparison in words (hTSLP/hTSLPR interaction): weaker

SMILES: O=c1cc(-c2ccccc2)oc2cccc(O)c12 [Compound 3c]
- inhibition at 300 µM (hTSLP/hTSLPR interaction; 0.3 mM): 24.1 ± 5.4%
- inhibition at 1000 µM (hTSLP/hTSLPR interaction; 1 mM): 16.8 ± 2%

SMILES: COc1c(O)ccc(O)c1-c1cc(=O)c2c(O)cc(O)c(OC)c2o1 [Compound 1e, viscidulin III]
- inhibition at 300 µM (hTSLP/hTSLPR interaction; 0.3 mM): 12.8 ± 0.6%
- inhibition at 1000 µM (hTSLP/hTSLPR interaction; 1 mM): 26.3%

SMILES: O=c1cc(-c2ccc(O)cc2)oc2cc(O)cc(O)c12 [Compound 6b, 5,7-Dihydroxy-2-(4-hydroxyphenyl)-4H-chromen-4-one]
- solubility kinetic at 90 min [1]: 486 µM (≈ 131 µg/mL)

SMILES: O=C1CC(c2c(O)cccc2O)Oc2cc(O)cc(O)c21 (centres unmarked) [Compound 1f, 2′,5,6′,7-tetrahydroflavanone]
- inhibition at 300 µM (hTSLP/hTSLPR interaction; 0.3 mM): 14 ± 3.8%
- inhibition at 1000 µM (hTSLP/hTSLPR interaction; 1 mM): 8.4 ± 5.8%

SMILES: O=c1cc(-c2cccc(-c3ccc([N+](=O)[O-])cc3)c2)oc2cc(O)c(O)cc12 [Compound 10h, 6,7-Dihydroxy-2-(4′-nitro-[1,1′-biphenyl]-3-yl)-4H-chromen-4-one]
- inhibition at 300 µM (hTSLP/hTSLPR interaction; 0.3 mM): > 50%
